Assay results: patent US20210069198A1 (HANYI BIO-TECHNOLOGY (BEIJING) CO., LTD., priority 2017, published 2021)

Test system: rat anxiety behavior induced by high-dose intake of caffeine
Assay: Elevated plus-maze test, Test 1: CBD against caffeine-induced anxiety behavior
Format: in vivo, wistar rats
Method: Test Animals: 50 SPF male wistar rats (180-200 g). Feeding Conditions: SPF animal houses, free feeding, 12 h light/12 h darkness.
Each CBD administration group was also intragastrically administrated with a corresponding dose of a CBD soybean oil solution at the same time, and then an elevated plus-maze test was conducted within 30 minutes after administration.
Elevated Plus-maze (EMP) Test: A maze was cross-shaped and consists of 2 open arms (OAs), two closed arms (CAs) and a central platform. The maze was fixed on a support, 50 cm above the ground. A camera was placed above the central platform. The behaviors of rats were recorded and analyzed through a computer. The test was conducted in a quiet shaded condition. Before the test, the rats to be tested were placed in one rat cage. After freely exploring for 5 minutes, the rats were quickly placed on the central platform of the EMP. The observation test was started immediately after release. Each rat was tested for five minutes. After each rat was tested, the maze was thoroughly cleaned with a towel dipped in clean water and low-concentration ethanol. After the ethanol volatilizes and diffuses, the test on the next rat began.
(1) Open arm entry (OE): the number of entries into any open arm was based on the fact that four paws of each rat were located within the arms, and when any paw was completely withdrawn from the arms halfway, the current entry event was deemed as being completed.
(2) Open arm time (OT): it was measured in second.
(3) Closed arm entry (CE): the number of entries into any closed arm, which was determined based on the same standard as OE.
(4) Closed arm time (CT): it was measured in second.
(5) Calculation of the proportion of the number of entries into the open arm (OE %): namely, OE/(OE+CE)×100%.
(6) Proportion of residence time in the open arms (OT %): namely, OT/(OT+CT)×100%. OE % and OT % were used as indexes for evaluating the anxiety state of rats.
The data was expressed with x±s. One-way analysis of variance (one way ANOVA) was used to compare multi-sample means, and t test was used for inter-group comparison.

[1] = CBD 1 mg/kg intragastric together with 60 mg/kg caffeine
[2] = CBD 10 mg/kg intragastric together with 60 mg/kg caffeine
[3] = CBD 100 mg/kg intragastric together with 60 mg/kg caffeine
[4] = caffeine model group, 60 mg/kg caffeine intragastric, no CBD

For `C=C(C)[C@@H]1CCC(C)=C[C@H]1c1c(O)cc(CCCCC)cc1O` [CBD, Cannabidiol], the “OE (open arm entry)” value (CBD 1 mg/kg in soybean oil intragastric together with 60 mg/kg caffeine) was 3.2 ± 0.45 times, the “CE (closed arm entry)” value [1] was 7.0 ± 0.92 times and the “CT (closed arm time)” value [1] was 244 ± 5.14 s. The “OE % (proportion of entries into the open arm)” value (“OE %” for short) [1] was 31.37%, the “OT % (proportion of residence time in the open arms)” value (from here on “OT %”) [1] was 19.24% and the “OT (open arm time)” value [1] was 58.1 ± 3.30 s. The “CE (closed arm entry)” value [2] was 5.3 ± 1.07 times, the “CT (closed arm time)” value [2] was 214 ± 4.01 s and the “OE %” value [2] was 47.52%. The “OE (open arm entry)” value [2] was 4.8 ± 0.91 times, the “OT %” value [2] was 28.43% and the “OT (open arm time)” value [2] was 85 ± 2.07 s. The “CE (closed arm entry)” value [3] was 4.5 ± 0.91 times, the “CT (closed arm time)” value [3] was 201 ± 3.05 s and the “OE %” value [3] was 54.00%. The “OE (open arm entry)” value [3] was 5.4 ± 0.25 times, the “OT %” value [3] was 33.22% and the “OT (open arm time)” value [3] was 100 ± 1.32 s. For the same compound, the “effect on the anxiety behavior of rats (in words)” value (CBD 1-100 mg/kg intragastric together with 60 mg/kg caffeine) was “significant effect on inhibiting the anxiety behavior”.

`Cn1c(=O)c2c(ncn2C)n(C)c1=O` [Caffeine] was tested, and the “CE (closed arm entry)” value [4] was 7.8 ± 0.11 times, the “CT (closed arm time)” value [4] was 253 ± 5.09 s and the “OE %” value [4] was 21.21%. The “OT (open arm time)” value [4] was 42.9 ± 1.89 s and the “OE (open arm entry)” value (caffeine model group, 60 mg/kg caffeine saline solution intragastric, no CBD, EPM within 30 min, 5 min test) was 2.1 ± 0.78 times.
